The numbers were not newly measured in patent US8999393B1, “Sustained release formulations of lorazepam” (Edgemont Pharmaceuticals LLC, priority 2013, dated 2015), which cites them from elsewhere.

The conditions of series [1]: according to the package insert.

Turning to `O=C1Nc2ccc(Cl)cc2C(c2ccccc2Cl)=NC1O` (racemic) [lorazepam, ±7-chloro-5-(2-chlorophenyl)-1,3-dihydro-3-hydroxy-2H-1,4-benzodiazepin-2-one], the solubility in water entry is reported as “almost insoluble”. Moreover, in series [1], the “half-life in human plasma” value is on record as “about 12 hours”.
